In US8273771B2, “Ischemic disorder or disease inhibitors” (Pronas Pharma AB, priority 2007, dated 2012):
Where two headings read alike, the source gives them in different places.

Key:
AT2 receptor mRNA = assay: Real-time PCR of receptor mRNA in cerebral arteries after SAH; type: in vivo, rat; details: MCA, BA and circle of Willis grouped
pERK1/2 = assay: Immunohistochemistry of cerebral arteries after SAH; type: in vivo, rat; details: smooth muscle cells; sham 100±3%, SAH 188±7%
[1] = test system: MCA from rats with induced SAH; assay: Myograph contractile response to Ang II (via AT1) in cerebral arteries of treated SAH rats; type: in vivo, rat; details: in presence of PD123319, compared to SAH rats, no significant difference to sham
Procedure: The brains were quickly removed and chilled in ice-cold bicarbonate buffer solution (see composition below). Under a dissection microscope, the middle cerebral artery (MCA), the basilar artery (BA) and circle of Willis were carefully dissected free from the brain and cleared of connective tissue. The MCA and BA were immediately mounted in myographs for in vitro pharmacology or snap frozen at -80° C. and examined by real-time PCR. […] Measurements were recorded on a computer by use of a PowerLab unit (ADInstruments). […] The contractile capacity was determined by exposing the vessels to an isotonic solution containing 63.5 mM of K+, obtained by partial change of NaCl for KCl in the above buffer. […] Data are expressed as mean±standard error of the mean (s.e.m.), and n refers to the number of rats. […] In vitro Pharmacology Contractile responses in each segment are expressed as percentage of the 63.5 mM K+ induced contraction. […]

[2] = test system: rats after MCA occlusion and reperfusion; details: for brain damage (% of total volume): control 24.8±2%; for oedema (% of total volume): control 1.01±0.03
Procedure: This group of animals went through the same procedure as the above-mentioned SAH animals. Two hours after the MCA occlusion, the rat was re-anesthetized to allow for withdrawal of the filament and subsequent reperfusion of the brain. In conjunction with the reperfusion (0 h), at 6 h or at 12 h afterwards, and at 24 h after the start of the reperfusion in the same animal, the rats were injected intraperitoneal with 30 mg/kg U0126 dissolved in dimethylsulfoxide (DMSO). […] Control rats were injected with an equal volume of DMSO at the same time points.

Row | Structure (SMILES) | expression of AT2 receptor mRNA, difference between sham, SAH and treated SAH (AT2 receptor mRNA) | pERK1/2 level, fluorescence compared to sham (pERK1/2) | Ang II induced contractile response [1] | brain damage (% of total volume) ([2]; 30 mg/kg i.p. starting after 12 h) | brain damage (% of total volume) ([2]; 30 mg/kg i.p. starting at 0 h after MCAO reperfusion) | brain damage (% of total volume) ([2]; 30 mg/kg i.p. starting at 6 h) | lowest dose that elicited a clear significant effect on infarct volume ([2]; intraperitoneal, doses 10 to 100 mg/kg evaluated, preliminary experiments) | oedema (% of total volume) ([2]; treatment starting at 0 h) | oedema (% of total volume) ([2]; treatment starting at 6 h) | oedema (% of total volume) ([2]; treatment starting at 12 h)
1 | Oc1cc(-c2nc(-c3ccccc3)[nH]c2-c2ccncc2)ccc1Cl [SB386023-b] | no difference | 102±5% | significantly attenuated |  |  |  |  |  |  | 
2 | N#CC(=C(/N)Sc1ccccc1N)/C(C#N)=C(\N)Sc1ccccc1N [U0126] |  |  |  | 20.3±1% | 11.8±2% | 14.6±3% | 30 mg/kg | 1.05±0.02 % of total volume | 0.98±0.02 % of total volume | 1.02±0.04 % of total volume
